Results taken from PubChem BioAssay AID1963848 (Molecular Pharmacology Branch, DTP, NCI, 2024).

Tested on: 379773-124-R-J2-PDC spheroid viability
Test: Anticancer human tumor 379773-124-R-J2-PDC patient-derived endometrial carcinoma cell line growth inhibition [POLQ]
Details: spheroids with HUVEC and MSC; for IC50: curve of first compound; for viability, T/C: stronger effect = lower value
Method in brief: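 Patient-derived tumour cells were co-cultured with HUVEC and mesenchymal stem cells as multicellular spheroids at 37 °C. They were treated with POLQ inhibitors (novobiocin, ART-558, RP6685) alone or combined with other agents. Top concentrations were at or near clinical Cmax (otherwise 10 microM; SN-38 at 1 microM), decreasing in half-log steps.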

[1] = second compound 0.0316 µM, first compound 0.0316 µM
[2] = second compound 0.0316 µM, first compound 0.1 µM
[3] = second compound 0.0316 µM, first compound 0.316 µM
[4] = second compound 0.0316 µM, first compound 1 µM
[5] = second compound 0.0316 µM, first compound 3.16 µM
[6] = second compound 0.0316 µM, first compound 10 µM
[7] = second compound 0.1 µM, first compound 0.0316 µM
[8] = second compound 0.1 µM, first compound 0.1 µM
[9] = second compound 0.1 µM, first compound 0.316 µM
[10] = second compound 0.1 µM, first compound 1 µM
[11] = second compound 0.1 µM, first compound 3.16 µM
[12] = second compound 0.1 µM, first compound 10 µM
[13] = second compound 0.316 µM, first compound 0.0316 µM
[14] = second compound 0.316 µM, first compound 0.1 µM
[15] = second compound 0.316 µM, first compound 0.316 µM
[16] = second compound 0.316 µM, first compound 1 µM
[17] = second compound 0.316 µM, first compound 3.16 µM
[18] = second compound 0.316 µM, first compound 10 µM
[19] = second compound 1 µM, first compound 0.0316 µM
[20] = second compound 1 µM, first compound 0.1 µM
[21] = second compound 1 µM, first compound 0.316 µM
[22] = second compound 1 µM, first compound 1 µM
[23] = second compound 1 µM, first compound 3.16 µM
[24] = second compound 1 µM, first compound 10 µM
[25] = second compound 3.16 µM, first compound 0.0316 µM
[26] = second compound 3.16 µM, first compound 0.1 µM
[27] = second compound 3.16 µM, first compound 0.316 µM
[28] = second compound 3.16 µM, first compound 1 µM
[29] = second compound 3.16 µM, first compound 3.16 µM
[30] = second compound 3.16 µM, first compound 10 µM
[31] = second compound 10 µM, first compound 0.0316 µM
[32] = second compound 10 µM, first compound 0.1 µM
[33] = second compound 10 µM, first compound 0.316 µM
[34] = second compound 10 µM, first compound 1 µM
[35] = second compound 10 µM, first compound 3.16 µM
[36] = second compound 10 µM, first compound 10 µM
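Also: spheroids exposed to drugs for seven days before readout.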
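For viability, T/C in this document: percent viability relative to DMSO vehicle control taken as 100%.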

CC(=O)O[C@H]1C(=O)[C@@]2(C)[C@H]([C@H](OC(=O)c3ccccc3)[C@]3(O)C[C@H](OC(=O)[C@H](O)[C@@H](NC(=O)c4ccccc4)c4ccccc4)C(C)=C1C3(C)C)[C@]1(OC(C)=O)CO[C@@H]1C[C@@H]2O + Nc1ccc(C#CCN(C(=O)Cc2ncc(C(F)(F)F)cc2C(F)(F)F)c2ccc(F)cc2)nn1 was tested, and the IC50 (second compound 0.0316 µM) was less than 0.00949 µM, the IC50 (second compound 0.1 µM) was less than 0.00949 µM and the IC50 (second compound 0.316 µM) was less than 0.00949 µM. For the same compound, the IC50 (second compound 1 µM) was less than 0.00949 µM, the IC50 (second compound 3.16 µM) was less than 0.00949 µM and the IC50 (second compound 10 µM) was less than 0.00949 µM. For the same compound, the viability, T/C (second compound 0.0316 µM, first compound 0.00949 µM) was 22.9%, the viability, T/C (second compound 0.0316 µM, first compound 0.03 µM) was 8.34% and the viability, T/C (second compound 0.0316 µM, first compound 0.0949 µM) was 8.59%. The viability, T/C (second compound 0.0316 µM, first compound 0.3 µM) was 12%, the viability, T/C (second compound 0.0316 µM, first compound 0.949 µM) was 7.39% and the viability, T/C (second compound 0.0316 µM, first compound 3 µM) was 10.1%. The viability, T/C (second compound 0.1 µM, first compound 0.00949 µM) was 19%, the viability, T/C (second compound 0.1 µM, first compound 0.03 µM) was 11.5% and the viability, T/C (second compound 0.1 µM, first compound 0.0949 µM) was 8.46%. The viability, T/C (second compound 0.1 µM, first compound 0.3 µM) was 9.83%, the viability, T/C (second compound 0.1 µM, first compound 0.949 µM) was 9.69% and the viability, T/C (second compound 0.1 µM, first compound 3 µM) was 8.71%. It also gave a viability, T/C (second compound 0.316 µM, first compound 0.00949 µM) of 23.7%, a viability, T/C (second compound 0.316 µM, first compound 0.03 µM) of 9.89% and a viability, T/C (second compound 0.316 µM, first compound 0.0949 µM) of 10.2%. It also gave a viability, T/C (second compound 0.316 µM, first compound 0.3 µM) of 12.1%, a viability, T/C (second compound 0.316 µM, first compound 0.949 µM) of 10.1% and a viability, T/C (second compound 0.316 µM, first compound 3 µM) of 9.75%. The viability, T/C (second compound 1 µM, first compound 0.00949 µM) was 28.3%, the viability, T/C (second compound 1 µM, first compound 0.03 µM) was 10.3% and the viability, T/C (second compound 1 µM, first compound 0.0949 µM) was 10.1%. For the same compound, the viability, T/C (second compound 1 µM, first compound 0.3 µM) was 9.22%, the viability, T/C (second compound 1 µM, first compound 0.949 µM) was 10.3% and the viability, T/C (second compound 1 µM, first compound 3 µM) was 8.87%. For the same compound, the viability, T/C (second compound 3.16 µM, first compound 0.00949 µM) was 23.4%, the viability, T/C (second compound 3.16 µM, first compound 0.03 µM) was 9.86% and the viability, T/C (second compound 3.16 µM, first compound 0.0949 µM) was 9.86%. It also gave a viability, T/C (second compound 3.16 µM, first compound 0.3 µM) of 10.8%, a viability, T/C (second compound 3.16 µM, first compound 0.949 µM) of 11% and a viability, T/C (second compound 3.16 µM, first compound 3 µM) of 9.15%. The viability, T/C (second compound 10 µM, first compound 0.00949 µM) was 25.1%, the viability, T/C (second compound 10 µM, first compound 0.03 µM) was 10.9% and the viability, T/C (second compound 10 µM, first compound 0.0949 µM) was 9.07%. It also gave a viability, T/C (second compound 10 µM, first compound 0.3 µM) of 10.1%, a viability, T/C (second compound 10 µM, first compound 0.949 µM) of 8.38% and a viability, T/C (second compound 10 µM, first compound 3 µM) of 8.52%.

For COc1cc(C2c3cc4c(cc3C(OC3OC5COC(C)OC5C(O)C3O)C3COC(=O)C23)OCO4)cc(OC)c1O (stereo unspecified) + Nc1ccc(C#CCN(C(=O)Cc2ncc(C(F)(F)F)cc2C(F)(F)F)c2ccc(F)cc2)nn1, the IC50 (second compound 0.0316 µM) was 1.5 µM, the IC50 (second compound 0.1 µM) was 1.57 µM and the IC50 (second compound 0.316 µM) was 1.49 µM. The IC50 (second compound 1 µM) was 1.24 µM, the IC50 (second compound 3.16 µM) was 1.41 µM and the IC50 (second compound 10 µM) was 1.24 µM. The viability, T/C [1] was 95.4%, the viability, T/C [2] was 116% and the viability, T/C [3] was 81.9%. It also gave a viability, T/C [4] of 70.4%, a viability, T/C [5] of 17% and a viability, T/C [6] of 15.5%. The viability, T/C [7] was 98.8%, the viability, T/C [8] was 86% and the viability, T/C [9] was 90%. The viability, T/C [10] was 70.2%, the viability, T/C [11] was 18.6% and the viability, T/C [12] was 14.1%. The viability, T/C [13] was 92.5%, the viability, T/C [14] was 116% and the viability, T/C [15] was 97%. For the same compound, the viability, T/C [16] was 67.4%, the viability, T/C [17] was 15.9% and the viability, T/C [18] was 16.8%. For the same compound, the viability, T/C [19] was 99.1%, the viability, T/C [20] was 96.2% and the viability, T/C [21] was 78.4%. It also gave a viability, T/C [22] of 62.2%, a viability, T/C [23] of 17.3% and a viability, T/C [24] of 13.8%. It also gave a viability, T/C [25] of 94.1%, a viability, T/C [26] of 96.1% and a viability, T/C [27] of 81.7%. For the same compound, the viability, T/C [28] was 65.1%, the viability, T/C [29] was 18.2% and the viability, T/C [30] was 13.6%. The viability, T/C [31] was 98%, the viability, T/C [32] was 92.7% and the viability, T/C [33] was 98%. The viability, T/C [34] was 57.6%, the viability, T/C [35] was 16.9% and the viability, T/C [36] was 16.3%.

In the case of O=c1[nH]cc(F)c(=O)[nH]1 + Nc1ccc(C#CCN(C(=O)Cc2ncc(C(F)(F)F)cc2C(F)(F)F)c2ccc(F)cc2)nn1, the IC50 (second compound 0.0316 µM) is reported as greater than 10 µM, the IC50 (second compound 0.1 µM) is reported as greater than 10 µM and the IC50 (second compound 0.316 µM) is reported as greater than 10 µM. The IC50 (second compound 1 µM) was greater than 10 µM, the IC50 (second compound 3.16 µM) was greater than 10 µM and the IC50 (second compound 10 µM) was greater than 10 µM. It also gave a viability, T/C [1] of 93.1%, a viability, T/C [2] of 93% and a viability, T/C [3] of 99.6%. For the same compound, the viability, T/C [4] was 85.2%, the viability, T/C [5] was 78.1% and the viability, T/C [6] was 55.7%. It also gave a viability, T/C [7] of 89.2%, a viability, T/C [8] of 98.1% and a viability, T/C [9] of 95.1%. The viability, T/C [10] was 80.4%, the viability, T/C [11] was 78.8% and the viability, T/C [12] was 59.6%. It also gave a viability, T/C [13] of 96.1%, a viability, T/C [14] of 98.1% and a viability, T/C [15] of 98.2%. For the same compound, the viability, T/C [16] was 94.7%, the viability, T/C [17] was 74.4% and the viability, T/C [18] was 62%. It also gave a viability, T/C [19] of 92.3%, a viability, T/C [20] of 85.3% and a viability, T/C [21] of 95.3%. It also gave a viability, T/C [22] of 87.2%, a viability, T/C [23] of 75.9% and a viability, T/C [24] of 51.3%. The viability, T/C [25] was 94.1%, the viability, T/C [26] was 83% and the viability, T/C [27] was 91.3%. The viability, T/C [28] was 82.4%, the viability, T/C [29] was 74.1% and the viability, T/C [30] was 57.7%. The viability, T/C [31] was 87.4%, the viability, T/C [32] was 88.2% and the viability, T/C [33] was 93.5%. It also gave a viability, T/C [34] of 90.2%, a viability, T/C [35] of 63.1% and a viability, T/C [36] of 57.6%.
